In the NIST ThermoML archive (doi:10.1021/je0496995):
± gives the expanded uncertainty stated by the source.

Assay: mn = molality of the nth substance listed, in mol/kg
Conditions: Liquid; for viscosity: 101.3 kPa, Capillary tube (Ostwald / Ubbelohde) method; for mass density: 101.33 kPa, Pycnometric method

O=C(O)c1cccnc1 [3-carboxylpyridine] + Cc1cccnc1
Conditions	mass density [kg/m3]	viscosity [mPa·s]
293.15 K, m1 = 0.02469	956.7 ± 0.5	0.9504 ± 0.013
293.15 K, m1 = 0.107	959.5 ± 0.5	0.9659 ± 0.013
293.15 K, m1 = 0.2134	964.1 ± 0.5	0.9908 ± 0.013
293.15 K, m1 = 0.319	969.5 ± 0.5	1.015 ± 0.014
293.15 K, m1 = 0.424	975.8 ± 0.5	1.05 ± 0.014
293.15 K, m1 = 0.5284	983 ± 0.5	1.107 ± 0.015
303.15 K, m1 = 0.02469	947.3 ± 0.5	0.8363 ± 0.011
303.15 K, m1 = 0.107	950.1 ± 0.5	0.8514 ± 0.011
303.15 K, m1 = 0.2134	954.6 ± 0.5	0.8764 ± 0.012
303.15 K, m1 = 0.319	960 ± 0.5	0.9018 ± 0.012
303.15 K, m1 = 0.424	966.4 ± 0.5	0.9368 ± 0.013
303.15 K, m1 = 0.5284	973.5 ± 0.6	0.9891 ± 0.013
313.15 K, m1 = 0.02469	938.4 ± 0.5	0.7399 ± 0.01
313.15 K, m1 = 0.107	941.2 ± 0.5	0.7553 ± 0.01
313.15 K, m1 = 0.2134	945.7 ± 0.5	0.7804 ± 0.01
313.15 K, m1 = 0.319	951 ± 0.5	0.8048 ± 0.011
313.15 K, m1 = 0.424	957.5 ± 0.5	0.8396 ± 0.011
313.15 K, m1 = 0.5284	964.7 ± 0.6	0.8961 ± 0.012
323.15 K, m1 = 0.02469	929 ± 0.5	0.661 ± 0.0089
323.15 K, m1 = 0.107	931.8 ± 0.5	0.6762 ± 0.0092
323.15 K, m1 = 0.2134	936.3 ± 0.5	0.7014 ± 0.0095
323.15 K, m1 = 0.319	941.5 ± 0.5	0.7265 ± 0.0099
323.15 K, m1 = 0.424	947.8 ± 0.5	0.7613 ± 0.01
323.15 K, m1 = 0.5284	955.2 ± 0.6	0.8173 ± 0.011
333.15 K, m1 = 0.02469	920 ± 0.5	0.5981 ± 0.0081
333.15 K, m1 = 0.107	922.8 ± 0.5	0.6134 ± 0.0083
333.15 K, m1 = 0.2134	927.2 ± 0.5	0.6381 ± 0.0087
333.15 K, m1 = 0.319	932.5 ± 0.5	0.6632 ± 0.009
333.15 K, m1 = 0.424	938.7 ± 0.6	0.6983 ± 0.0095
333.15 K, m1 = 0.5284	946.2 ± 0.6	0.7541 ± 0.01
343.15 K, m1 = 0.02469	911 ± 0.5	0.5434 ± 0.0074
343.15 K, m1 = 0.107	913.8 ± 0.5	0.5594 ± 0.0076
343.15 K, m1 = 0.2134	918.2 ± 0.5	0.5833 ± 0.008
343.15 K, m1 = 0.319	923.5 ± 0.6	0.6086 ± 0.0083
343.15 K, m1 = 0.424	929.7 ± 0.6	0.6431 ± 0.0088
343.15 K, m1 = 0.5284	937.2 ± 0.6	0.6997 ± 0.0096
